Test results reported in patent US4345938A, “Herbicidal 2-haloacetanilides” (Monsanto Company, priority 1980, dated 1982).
Like-named read-outs stand apart in the source and are kept apart here.

Experiments:
Format in all cases: in vivo
Rice = assay: Field transplant rice test, applied 9 DAT, rice injury; conditions: Oryza sativa, 216 h, read-out: Percent Inhibition, Rice; for inhibition at 375 g/ha: 0.375 Kg/Ha; for inhibition at 750 g/ha: 0.75 Kg/Ha; for inhibition at 1500 g/ha: 1.5 Kg/Ha; for inhibition at 3000 g/ha: 3.0 Kg/Ha
Description: (§1) In further comparative tests, a preferred compound of this invention (Example 1) was tested in the field with prior art Compounds A-D. These tests were conducted under conditions reflecting herbicide application times generally favorable to all herbicides in the test. The timing of application of herbicides to transplant rice is very important, whether, as in some instances, prior to transplanting the rice; in other instances, at the time of transplanting or else after transplanting. Application times are conventionally referred to as "days before transplant" (DBT) or "days after transplant" ("DAT"). The field test data in Table IV was obtained from a test in which the herbicides were applied at the time of transplant, i.e., "0 DAT", with observations being made weekly up to six weeks after transplant ("WAT") beginning at two weeks after transplant; for illustrative and representative purposes, only the early, middle and late period observations, i.e., 2 WAT, 4 WAT and 6 WAT, are shown in Table IV. The data in Table IV is for rates of application common to all herbicides in the test, i.e., from 3.0 kg/ha (2.67 lb/A) down to 0.375 kg/ha (0.34 lb/A). All herbicides were applied at their actual or expected use rates, i.e., as granules containing 2.5% by weight herbicide for the compound of Example 1, Compounds B, C and D and 5.0% by weight for Compound A.
(§2) In Table V are presented field data showing the relative performance of the compound of Example 1 and Compounds A-D applied 9 DAT, with observations being made weekly from 3 WAT to 7 WAT; again, for illustrative and representative purposes, only the early, middle and late period observations are reported in Table V, the herbicide rates and concentrations of active ingredients the same as is shown in Table IV.

Echinochloa crus-galli [1] = assay: Field transplant rice test, applied 0 DAT, EC; conditions: 0 h, read-out: Percent Inhibition, EC; for inhibition at 375 g/ha: 0.375 Kg/Ha; for inhibition at 750 g/ha: 0.75 Kg/Ha; for inhibition at 1500 g/ha: 1.5 Kg/Ha; for inhibition at 3000 g/ha: 3.0 Kg/Ha
Description: (§3) The test data in Table III for all compounds was obtained under identical test conditions. The weeds used in the tests herein have the following abbreviations in the tables: Echinochloa crus-galli (EC), Monochloria vaginalis (MV), Cyperus Serotinus (CS), Eleocharis Kuroguwai (EK) and Sagittaria trifolia (ST).
as §1

Sagittaria trifolia = assay: Field transplant rice test, applied 9 DAT, ST; conditions: 216 h, read-out: Percent Inhibition, ST; for inhibition at 375 g/ha: 0.375 Kg/Ha; for inhibition at 750 g/ha: 0.75 Kg/Ha; for inhibition at 1500 g/ha: 1.5 Kg/Ha; for inhibition at 3000 g/ha: 3.0 Kg/Ha
Description: as §3, §1, §2

Eleocharis kuroguwai [2] = assay: Field transplant rice test, applied 0 DAT, EK; conditions: 0 h, read-out: Percent Inhibition, EK; for inhibition at 375 g/ha: 0.375 Kg/Ha; for inhibition at 750 g/ha: 0.75 Kg/Ha; for inhibition at 1500 g/ha: 1.5 Kg/Ha; for inhibition at 3000 g/ha: 3.0 Kg/Ha
Description: as §3, §1

Echinochloa crus-galli [3] = assay: Greenhouse transplant rice test, EC; conditions: about 3 WAT, read-out: Percent Inhibition, EC
From the text: (§4) The test procedure used in this greenhouse test is as follows: Ray silt loam top soil containing about 0.05% by weight of krillium and sifted through a […] screen is fumigated about 5-10 days prior to use. Pots are then filled with said Ray silt loam soil to a level to allow for a 1 in. (2.54 cm) flooding depth. Rice plants (Bluebelle) of 2 to 3 weeks age are transplanted to the pots and bulbs or seeds of the test weeds also planted in the pots. The pots are then flooded and the test chemical applied to the surface of the flood water. The flood water is reduced to allow for germination of the Echinochloa crus-galli (barnyardgrass) seed and subsequently reflooded and maintained in that condition. Observations of percent inhibition using a scale of 0-100% are made about 3 weeks after transplant (WAT).
as §3

Eleocharis kuroguwai [4] = assay: Field transplant rice test, applied 9 DAT, EK; conditions: for inhibition at 375 g/ha / inhibition at 750 g/ha / inhibition at 1500 g/ha / inhibition at 3000 g/ha: Eleocharis kuroguwai, 216 h, read-out: Percent Inhibition, EK; for inhibition at 375 g/ha: 0.375 Kg/Ha; for inhibition at 750 g/ha: 0.75 Kg/Ha; for inhibition at 1500 g/ha: 1.5 Kg/Ha; for inhibition at 3000 g/ha: 3.0 Kg/Ha
From the text: In the discussion of data below, occasional reference is made to herbicide application rates symbolized as "GR15 " and "GR85 "; these rates are given in kilograms per hectare (kg/ha) which are convertible into pounds per acre (lbs/A) by dividing the kg/ha rate by 1.12.
A further guide to the effectiveness of a chemical as a selective herbicide is the "selectivity factor" ("SF") for a herbicide in given crops and weeds. The selectivity factor is a measure of the relative degree of crop safety and weed injury and is expressed in terms of the GR15 /GR85 ratio, i.e., the GR15 rate for the crop divided by the GR85 rate for the weed, both rates in kg/ha (lb/A.)
as §3, §1, §2

Monochoria vaginalis = assay: Greenhouse transplant rice test, MV; conditions: Pontederia vaginalis, about 3 WAT, read-out: Percent Inhibition, MV
From the text: as §4, §3

`CCCCOCN(C(=O)CCl)c1c(CC)cccc1CC` [Compound A, 2',6'-diethyl-N-(n-butoxymethyl)-2-chloroacetanilide] showed an inhibition at 375 g/ha (Rice; 3 WAT) of 10%, an inhibition at 375 g/ha (Rice; 5 WAT) of 8% and an inhibition at 375 g/ha (Rice; 7 WAT) of 8%. The inhibition at 750 g/ha (Rice; 3 WAT) was 13%, the inhibition at 750 g/ha (Rice; 5 WAT) was 3% and the inhibition at 750 g/ha (Rice; 7 WAT) was 7%. The inhibition at 1500 g/ha (Rice; 3 WAT) was 12%, the inhibition at 1500 g/ha (Rice; 5 WAT) was 7% and the inhibition at 1500 g/ha (Rice; 7 WAT) was 5%. The inhibition at 3000 g/ha (Rice; 3 WAT) was 12%, the inhibition at 3000 g/ha (Rice; 5 WAT) was 7% and the inhibition at 3000 g/ha (Rice; 7 WAT) was 5%. For the same compound, the inhibition at 375 g/ha (Echinochloa crus-galli [1]; 2 WAT) was 60%, the inhibition at 375 g/ha (Echinochloa crus-galli [1]; 4 WAT) was 72% and the inhibition at 375 g/ha (Echinochloa crus-galli [1]; 6 WAT) was 60%. It also gave an inhibition at 750 g/ha (Echinochloa crus-galli [1]; 2 WAT) of 90%, an inhibition at 750 g/ha (Echinochloa crus-galli [1]; 4 WAT) of 100% and an inhibition at 750 g/ha (Echinochloa crus-galli [1]; 6 WAT) of 100%. It also gave an inhibition at 1500 g/ha (Echinochloa crus-galli [1]; 2 WAT) of 95%, an inhibition at 1500 g/ha (Echinochloa crus-galli [1]; 4 WAT) of 100% and an inhibition at 1500 g/ha (Echinochloa crus-galli [1]; 6 WAT) of 97%. It also gave an inhibition at 3000 g/ha (Echinochloa crus-galli [1]; 2 WAT) of 98%, an inhibition at 3000 g/ha (Echinochloa crus-galli [1]; 4 WAT) of 100% and an inhibition at 3000 g/ha (Echinochloa crus-galli [1]; 6 WAT) of 100%. For the same compound, the inhibition at 375 g/ha (Sagittaria trifolia; 3 WAT) was 37%, the inhibition at 375 g/ha (Sagittaria trifolia; 5 WAT) was 12% and the inhibition at 375 g/ha (Sagittaria trifolia; 7 WAT) was 7%. The inhibition at 750 g/ha (Sagittaria trifolia; 3 WAT) was 26%, the inhibition at 750 g/ha (Sagittaria trifolia; 5 WAT) was 10% and the inhibition at 750 g/ha (Sagittaria trifolia; 7 WAT) was 8%. For the same compound, the inhibition at 1500 g/ha (Sagittaria trifolia; 3 WAT) was 35%, the inhibition at 1500 g/ha (Sagittaria trifolia; 5 WAT) was 5% and the inhibition at 1500 g/ha (Sagittaria trifolia; 7 WAT) was 3%. For the same compound, the inhibition at 3000 g/ha (Sagittaria trifolia; 3 WAT) was 52%, the inhibition at 3000 g/ha (Sagittaria trifolia; 5 WAT) was 23% and the inhibition at 3000 g/ha (Sagittaria trifolia; 7 WAT) was 13%. For the same compound, the inhibition at 375 g/ha (Eleocharis kuroguwai [2]; 2 WAT) was 65%, the inhibition at 375 g/ha (Eleocharis kuroguwai [2]; 4 WAT) was 33% and the inhibition at 375 g/ha (Eleocharis kuroguwai [2]; 6 WAT) was 10%. The inhibition at 750 g/ha (Eleocharis kuroguwai [2]; 2 WAT) was 45%, the inhibition at 750 g/ha (Eleocharis kuroguwai [2]; 4 WAT) was 22% and the inhibition at 750 g/ha (Eleocharis kuroguwai [2]; 6 WAT) was 0%. The inhibition at 1500 g/ha (Eleocharis kuroguwai [2]; 2 WAT) was 83%, the inhibition at 1500 g/ha (Eleocharis kuroguwai [2]; 4 WAT) was 78% and the inhibition at 1500 g/ha (Eleocharis kuroguwai [2]; 6 WAT) was 28%. For the same compound, the inhibition at 3000 g/ha (Eleocharis kuroguwai [2]; 2 WAT) was 90%, the inhibition at 3000 g/ha (Eleocharis kuroguwai [2]; 4 WAT) was 88% and the inhibition at 3000 g/ha (Eleocharis kuroguwai [2]; 6 WAT) was 68%. For the same compound, the inhibition at 280 g/ha (Echinochloa crus-galli [3]; 0.28 Kg/Ha) was 96%, the inhibition at 560 g/ha (Echinochloa crus-galli [3]; 0.56 Kg/Ha) was 100% and the inhibition at 1120 g/ha (Echinochloa crus-galli [3]; 1.12 Kg/Ha) was 100%. The inhibition at 2240 g/ha (Echinochloa crus-galli [3]; 2.24 Kg/Ha) was 100%, the “selectivity factor (GR15/GR85), EK in transplant rice” value (Eleocharis kuroguwai [4]; 3 WAT) was “non-selective” and the inhibition at 375 g/ha (Eleocharis kuroguwai [4]; 3 WAT) was 40%. The inhibition at 375 g/ha (Eleocharis kuroguwai [4]; 5 WAT) was 22%, the inhibition at 375 g/ha (Eleocharis kuroguwai [4]; 7 WAT) was 3% and the inhibition at 750 g/ha (Eleocharis kuroguwai [4]; 3 WAT) was 37%. For the same compound, the inhibition at 750 g/ha (Eleocharis kuroguwai [4]; 5 WAT) was 12%, the inhibition at 750 g/ha (Eleocharis kuroguwai [4]; 7 WAT) was 3% and the inhibition at 1500 g/ha (Eleocharis kuroguwai [4]; 3 WAT) was 55%. It also gave an inhibition at 1500 g/ha (Eleocharis kuroguwai [4]; 5 WAT) of 25%, an inhibition at 1500 g/ha (Eleocharis kuroguwai [4]; 7 WAT) of 0% and an inhibition at 3000 g/ha (Eleocharis kuroguwai [4]; 3 WAT) of 68%. The inhibition at 3000 g/ha (Eleocharis kuroguwai [4]; 5 WAT) was 40%, the inhibition at 3000 g/ha (Eleocharis kuroguwai [4]; 7 WAT) was 0% and the inhibition at 280 g/ha (Monochoria vaginalis; 0.28 Kg/Ha) was 98%. The inhibition at 560 g/ha (Monochoria vaginalis; 0.56 Kg/Ha) was 100%, the inhibition at 1120 g/ha (Monochoria vaginalis; 1.12 Kg/Ha) was 100% and the inhibition at 2240 g/ha (Monochoria vaginalis; 2.24 Kg/Ha) was 100%.
